Test results from paper PMC13091788 (NPJ Aging, 2026).
Counter-ions that a name gives are not always drawn. Blank lines part the entries; values can stand above or below the compound they belong to.

Columns and labels:
PAMPA assay = type: in vitro ADME; conditions: read-out: permeability of reference compounds
Description: To determine the passive membrane diffusion rates, Corning Gentest Pre-coated PAMPA Plate System was used. The acceptor plate was prepared by adding 200 μL of 0.1 M phosphate buffer (pH 4.5–8.6) supplemented with 5% DMSO to each well, and then 300 μL of 30 μM compounds in 0.1 M phosphate buffer (pH 4.5–8.6) with 5% DMSO were added to the donor wells. The acceptor plate was then placed on top of the donor plate and incubated at 37 °C for 4 h without agitation. After the incubation, the plates were separated and the solutions from each well of both the acceptor plate and the donor plate were transferred to 96-well plates and mixed with acetonitrile. The final concentrations of compounds in both donor and acceptor wells, as well as the concentrations of the initial donor solutions, were analyzed using liquid chromatography-tandem mass spectrometry (LC-MS/MS). The permeability of the compounds was calculated as described in a previous study. […] Two technical replicates were performed.

[1] = tested on: MITOL and mitochondrial proteins in C2C12 myoblasts; assay: Western blot of mitochondrial proteins in C2C12 myoblasts; type: cell-based, mouse; conditions: 48 h
Description: (§1) Murine myoblast C2C12 cells were used for various cellular experiments in this study. Two different sources of C2C12 cells were used depending on the experiment: C2C12 cells obtained from RIKEN BRC (RCB0987) were used for gene expression, mtDNA quantification, and mitochondrial morphology analysis; C2C12 cells from ATCC (CRL-1772) were used for OCR analysis. Cells were cultured in Dulbecco’s Modified Eagle Medium (DMEM; Sigma-Aldrich or Nacalai Tesque), supplemented with 10% FBS and 1% penicillin–streptomycin. Cells were maintained in a humidified incubator at 37°C with 5% CO2.
(§2) For cellular experiments, berberine or quinoid-type berberrubine (Q-BRB) was dissolved in DMSO, and berberrubine acetic acid adduct (AcA-BRB) was dissolved in distilled H2O. Each compound was diluted in culture medium to the indicated final concentrations.
Proteins in sample buffer were separated by SDS-PAGE and transferred to Immobilon-P PVDF membranes (IPVH00010, Millipore). Blots were probed with the indicated antibodies, and protein bands on the blot were visualized using Chemi-Lumi One L (07880-70, Nacalai Tesque) or Immobilon Western Chemiluminescent HRP Substrate (WBKLS0500, Millipore). Band images were captured using a LuminoGraph I imager (WSE-6100, ATTO). Relative band intensities were quantified using Fiji/ImageJ software. Unprocessed western blot images corresponding to the data presented in the main and supplementary figures are provided in Supplementary Figures 11–16.

C2C12 cells = assay: Quantification of mitochondrial DNA (mtDNA/nDNA ratio); type: cell-based, mouse; conditions: C2C12, 10 μM
Description: as §1
To generate mMITOL-knockout C2C12 cells, CRISPR-Cas9 vectors were constructed. Single-guide RNAs (sgRNAs) targeting the mouse MITOL gene were designed using the online tool CRISPOR (http://crispor.org). The oligonucleotide pair corresponding to the mMITOL guide RNA (gRNA sequence, 5′-[…]-3′) was annealed and ligated into the PX459 vector (48139, Addgene). C2C12 cells were transfected using Lipofectamine 3000 (Thermo Fisher Scientific), and knockout clones were selected by serial dilution.
To assess mitochondrial DNA (mtDNA) content, the mtDNA/nuclear DNA (nDNA) ratio was determined by extracting DNA from C2C12 cells using the NucleoSpin Tissue Kit (Takara Bio), followed by real-time quantitative PCR analysis with specific primer sets for mtDNA (16S rRNA or ND1) and nDNA (Hexokinase 2; HK2) (Supplementary Table 2). Real-time quantitative PCR was performed using TB Green Premix Ex Taq II (Takara Bio) and a Thermal Cycler Dice Real-Time System (Takara Bio). The analysis of mtDNA/nDNA ratios was conducted using the ΔΔCt method as previously described.

[2] = tested on: MITOL and Tom20 mRNA in C2C12 cells; assay: qRT-PCR analysis of C2C12 cells; type: cell-based, mouse; conditions: C2C12, 5 μM or 10 μM
Description: as §1, §2
Total RNA was extracted from C2C12 cells using an RNA extraction kit (RNeasy Mini Kit, Qiagen). After washing with PBS, cells were collected by trypsinization and centrifugation at 500 × g for 5 min, and the pellet was lysed according to the manufacturer’s instructions. The extracted RNA was reverse-transcribed into cDNA using a reverse transcription kit (ReverTra Ace, TOYOBO). Quantitative real-time PCR was performed using a qPCR master mix (KAPA SYBR FAST qPCR Master Mix (2X) Kit, KAPABIOSYSTEMS) and a thermal cycler (StepOnePlus, Applied Biosystems). Gene expression levels were normalized to GAPDH. Primer sets used for qRT-PCR are listed in Supplementary Table 1.

[3] = Water solubility, roughly examined; type: physicochemical; conditions: roughly examined
Description: Finally, we compared the water solubility of the three berberrubine forms. The solubility of three compounds, the reddish-black solid (quinoid-type berberrubine), the reddish-brown solid (berberrubine acetic acid salt), and the yellow solid (berberrubine acetic acid adduct), in water was roughly examined. […] On the other hand, the reddish-brown solid dissolved in about 30 mg in 1 mL of water.

rodents = conditions: high doses (up to 100 mg/kg/day), intraperitoneal or oral gavage; cited from earlier work

SMILES: COc1ccc2cc3[n+](cc2c1OC)CCc1cc2c(cc1-3)OCO2 [berberine, reference compound]
levels of Tom20, Mfn2, HSP60 and ATP5a proteins ([1]; C2C12, 5 μM or 10 μM): not observed
MITOL expression (western blot) ([1]; C2C12, 10 μM, berberrubine used as quinoid-type form): did not increase
mitochondrial abundance (mtDNA 16S rRNA or ND1 / nuclear HK2) (C2C12 cells): did not induce MITOL expression or increase mitochondrial content
mRNA levels of MITOL and Tom20 [2]: not observed

SMILES: COc1ccc2cc3[n+](cc2c1O)CCc1cc2c(cc1-3)OCO2 [berberrubine chloride]
hepatic toxicity in rodents (rodents): hepatic toxicity
renal toxicity in rodents (rodents): renal toxicity

SMILES: COCCc1ccc(OCC(O)CNC(C)C)cc1 (stereo not shown) [metoprolol, reference compound]
Papp at 4 h (PAMPA assay): 3 ×10⁻⁶ cm/s

Next, values leading:

Papp at 4 h (PAMPA assay): 24 ×10⁻⁶ cm/s
SMILES: Cc1cc(=O)n(-c2ccccc2)n1C [antipyrine, reference compound]

solubility [3]: ≥ 30 mg/mL
SMILES: COc1ccc2cc3n(cc-2c1=O)CCc1cc2c(cc1-3)OCO2 [berberrubine acetic acid salt]

Papp at 4 h (PAMPA assay): 0.084 ×10⁻⁶ cm/s
SMILES: O=C(O)c1cc(/N=N/c2ccc(S(=O)(=O)Nc3ccccn3)cc2)ccc1O [sulfasalazine, reference compound]
